Where no end group is shown, it is not given here.
How the values were obtained:
[1] = system: CT(a) receptor ECD alanine mutants; test: 125I-hCT radioligand binding, CT(a) mutants; design: species or system human; conditions: Ala mutation of W79, F99, D101, F102, H121, W128 and Y131; ~50 pM, 1 h, 37 °C, whole Cos-7 cells
Description: transfected with CT(a). […] Data are
binding observed for each peptide.
For C, D and E statistical

[2] = Ala scan of an amylin analogue; cited from earlier work
Description: Of the residues impacting on peptide function only R126 contributed to amylin or CGRP function but not that of CT. R126 in the CTR/RAMP complex sits in close proximity to W84 (RAMP1) that may form an interaction with the peptide C-terminus for amylin and CGRP, and thus may contribute to the orientation of the peptide C-terminus to allow this interaction. The net contribution of the RAMP interaction is a reordering of residues in loop 5 that facilitates the peptide turn of amylin and CGRP and interaction of the C-terminus with the W84 of the RAMP, with reorientation of loop 4 residues facilitat ...

Substance: ^125I-hCT: hCT radioiodinated with iodination bead, purified by reverse-phase HPLC
- 125I-hCT binding [1]: significantly reduced

Substance: V32: amylin analogue with V32 substitution, from Ala scan of ref 34 (KCNTATCATQRLANFLVHSSNNFGAILSSTNAGSNTY; ends and bridges not checked; cysteine pairing not given here; UniProt P10997 34-70, looked up, variant V32A)
- binding [2]: abolishing binding

Substance: T30: amylin analogue with T30 substitution, from Ala scan of ref 34 (KCNTATCATQRLANFLVHSSNNFGAILSSANVGSNTY; ends and bridges not checked; cysteine pairing not given here; UniProt P10997 34-70, looked up, variant T30A)
- binding [2]: abolishing binding
